Patent US6583150B1, “Pharmaceutical composition based on polyaromatic compounds” (Laboratorie L. Lafon, priority 1999, dated 2003)

Legend:
[1] = tested on: U-373MG; assay: MTT cytotoxicity test, U-373MG; type: cell-based; conditions: Homo sapiens, U373 MG, U-373MG glioblastoma, 72 hours, read-out: concentrations flanking the IC50
Procedure: (§1) The influence of the compounds of formulae I and II on neoplastic cells was evaluated using the MTT calorimetric test. The principle of the MTT test is based on the mitochondrial reduction by metabolically active live cells of the yellow-colored product MTT (3-(4,5-dimethylthiazol-2-yl)-2,5-diphenyltetrazolium bromide) to a blue-colored product, formazan. The amount of formazan thus obtained is directly proportional to the amount of live cells present in the culture well(s). This amount of formazan is measured by spectrophotometry.
(§2) The cell lines are maintained in monolayer culture at 37° C. in stoppered culture dishes containing 25 MM HEPES MEM (Minimum Essential Medium) base medium. This medium, which is suitable for growing a range of varied diploid or primary mammalian cells, is then supplemented: […]
(§3) with a an amount of 5% FCS (Fetal Calf Serum) decomplemented at 56° C. for 1 hour, with 0.6 mg/mL of L-glutamine, with 200 IU/mL of penicillin, with […] of streptomycin, with 0.1 mg/mL of gentamicin.
(§4) The 12 human cancer cell lines used were obtained from the American Type Culture Collection (ATCC, Rockville, Md., USA). These 12 cell lines are:
(§5) U-373MG (code ATCC: HTB-17) and U-87MG (code ATCC: HTB-14) which are two glioblastomas, Experimentally: 100 μl of a cell suspension containing 200 000 to 50 000 (depending on the cell type used) cells/mL of culture medium are inoculated in flat-bottomed 96-well multi-well plates and are incubated at 37° C. under an atmosphere comprising 5% CO2 and 70% humidity. […] The intensity of the resulting blue coloration, and thus of the conversion of the yellow MTT product into blue formazan by the cells that are still alive at the end of the experiment is quantified by spectrophotometry using a DYNATECH IMMUNOASSAY SYSTEM machine at wavelengths of 570 nm and 630 nm corresponding, respectively, to the maximum absorption wavelengths of formazan and to the background noise. […]

[2] = tested on: A549; assay: MTT cytotoxicity test, A549; type: cell-based; conditions: Homo sapiens, A549 non-small-cell lung cancer, 72 hours, read-out: concentrations flanking the IC50
Procedure: as §1, §2, §3
The 12 human cancer cell lines used were obtained from the American Type Culture Collection (ATCC, Rockville, Md., USA). These 12 cell lines are: […]

[3] = tested on: 12 human tumor lines: U-87MG, U-373MG, SW 1088, T24, J82, HCT-15, LoVo, MCF7, T-47D, A549, A-427 and PC-3; assay: MTT cytotoxicity test, panel of the 12 human tumor lines; type: cell-based; conditions: Homo sapiens, read-out: average IC50
Procedure: as §1, §2, §3, §4
U-373MG (code ATCC: HTB-17) and U-87MG (code ATCC: HTB-14) which are two glioblastomas, SW1088 (code ATCC: HTB-12) which is an astrocytoma, A549 (code ATCC: CCL-185) and A-427 (code ATCC: HTB-53) which are two non-small-cell lung cancers, HCT-15 (code ATCC: CCL-225) and LoVo (code ATCC: CCL-229) which are two colorectal cancers, T-47D (code ATCC: HTB-133) and MCF7 (code ATCC: HTB-22) which are two breast cancers, J82 (code ATCC: HTB-1) and T24 (code ATCC: HTB-4) which are two bladder cancers, PC-3 (code ATCC: CRL-1435) which is a prostate cancer.
Experimentally: 100 μl of a cell suspension containing 200 000 to 50 000 (depending on the cell type used) cells/mL of culture medium are inoculated in flat-bottomed 96-well multi-well plates and are incubated at 37° C. under an atmosphere comprising 5% CO2 and 70% humidity. After incubating for 24 hours, the culture medium is replaced with 100 μl of fresh medium containing either the various test compounds at concentrations ranging from 10^−5 to 10^−10 M or the solvent used to dissolve the test products (control condition). After incubating for 72 hours under the above conditions, the culture medium is replaced with 100 μl of a yellowish solution of MTT dissolved at a rate of 1 mg/mL in RPMI 1640. The microplates are reincubated for 3 hours at 37° C. and then centrifuged for 10 minutes at 400×g. The yellowish solution of MTT is removed and the blue formazan crystals formed at the cellular level are dissolved in 100 μl of DMSO. The microplates are then agitated for 5 minutes. The intensity of the resulting blue coloration, and thus of the conversion of the yellow MTT product into blue formazan by the cells that are still alive at the end of the experiment is quantified by spectrophotometry using a DYNATECH IMMUNOASSAY SYSTEM machine at wavelengths of 570 nm and 630 nm corresponding, respectively, to the maximum absorption wavelengths of formazan and to the background noise. Software built into the spectrophotometer calculates the average optical density values and also the standard deviation (Std. Dev.) and standard error of mean (SEM) values.
The inhibitory activity on the cell growth of the compounds of formula I and of formula II on the different tumor cell lines was compared with that of the natural product meridine (CRL 8348). All of the compounds of formula I and of formula II show significant inhibitory activity on the cell proliferation of the 12 human tumor lines: U-87MG, U-373MG, SW 1088, T24, J82, HCT-15, LoVo, MCF7, T-47D, A549, A-427 and PC-3 with an inhibitory concentration 50 (IC50) which is between 10^−6 M and 10^−10M, depending on the compounds and the tumor lines tested. By way of example, the values of the concentrations flanking the IC50 which are obtained on the various cell lines are given in table II: […]

[4] = tested on: U-87MG; assay: MTT cytotoxicity test, U-87MG; type: cell-based; conditions: Homo sapiens, U-87MG glioblastoma, 72 hours, read-out: concentrations flanking the IC50
Procedure: as §1, §2, §3, §4, §5

[5] = Determination of the maximum tolerated dose (MTD); type: in vivo; conditions: mouse, in vivo, ip; single intraperitoneal administration, survival over 14 days, B6D2F1/Jico mice
Procedure: The evaluation of the maximum tolerated dose was carried out on 4- to 6-week-old B6D2F1/Jico mice. […] The value of the MTD (expressed in mg/kg) is determined from observing the survival rate of the animals over a period of 14 days after a single administration of the product under consideration. The change in the weight of the animals is also monitored over this period.

For `COc1ccnc2c1C(=O)c1c(-c3ccccc3NC(=O)C(F)(F)F)ccnc1C2=O` [CRL 8275, 6-Methoxy-4-(2-trifluoroacetamidophenyl)pyrido-[3,2-g]quinoline-5,10-dione], the IC50 [1] was < 0.1 nM, the IC50 [2] was < 0.1 nM and the IC50 [3] was 2.3 nM. For the same molecule, the IC50 [4] was < 0.1 nM and the MTD at 14 days [5] was 80 mg/kg.
